Measurements reported in ChEMBL document CHEMBL5131473, “One-pot synthesis of oxoaporphines as potent antitumor agents and investigation of their mechanisms of actions” (Eur J Med Chem, 2022).
Activity calls are given as the source filed them. The calls are words filed in the database; no cut-off is given here.

Legend:
[1] = test system: T-24; assay: Inhibition of cell migration in human T24 cells assessed as recovery of wound area at 5 uM measured after 24 hrs by wound healing assay based fluorescence microscopy; type: functional; set-up: scale not given: the % may be the effect or the level left
[2] = test system: T-24; assay: Induction of apoptosis in human T24 cells assessed as late apoptotic cells at 20 uM incubated for 24 hrs by Annexin-V/PI staining based flow cytometry analysis (reference value: 0.543 %); type: functional
[3] = test system: T-24; assay: Induction of apoptosis in human T24 cells assessed as contracted small fragmented nuclei at 10 uM by Hoechst33258 staining based fluorescence microscopy; type: functional, cell-based
[4] = test system: T-24; assay: Induction of cell cycle arrest in human T24 cells assessed as accumulation of cells at G1 phase at 15 uM incubated for 24 hrs by propidium iodide/RNase A staining based flow cytometry analysis (reference value: 51.71 %); type: functional
[5] = test system: T-24; assay: Induction of apoptosis in human T24 cells assessed as viable cells at 10 uM incubated for 24 hrs by Annexin-V/PI staining based flow cytometry analysis (reference value: 94.3 %); type: functional; settings: read-out: Activity
[6] = test system: T-24; assay: Induction of apoptosis in human T24 cells assessed as necrotic cells at 20 uM incubated for 24 hrs by Annexin-V/PI staining based flow cytometry analysis (reference value: 1.92 %); type: functional
[7] = test system: T-24; assay: Induction of apoptosis in human T24 cells assessed as necrotic cells at 15 uM incubated for 24 hrs by Annexin-V/PI staining based flow cytometry analysis (reference value: 1.92 %); type: functional
[8] = test system: T-24; assay: Induction of apoptosis in human T24 cells assessed as early apoptotic cells at 20 uM incubated for 24 hrs by Annexin-V/PI staining based flow cytometry analysis (reference value: 3.27 %); type: functional
[9] = test system: T-24; assay: Induction of mitochondrial ROS generation in human T24 cells at 0.5 uM measured after 24 hrs by DCFH-DA staining based confocal microscopy method; type: functional, cell-based
[10] = test system: T-24; assay: Induction of mitochondrial membrane potential dysfunction in human T24 cells assessed as increase in fragmentation at 0.5 uM incubated for 24 hrs by TEM analysis; type: functional, cell-based
[11] = test system: T-24; assay: Induction of cell cycle arrest in human T24 cells assessed as accumulation of cells at G2/M phase at 1 uM incubated for 24 hrs by propidium iodide/RNase A staining based flow cytometry analysis (reference value: 5.82 %); type: functional
[12] = test system: T-24; assay: Induction of apoptosis in human T24 cells assessed as increase in caspase 3 activity at 0.5 uM (Rvb= 3.1%); type: functional
[13] = test system: T-24; assay: Potency index, ratio of oxoaporphine IC50 to test compound IC50 for anticancer activity against human T24 cells; type: functional
[14] = test system: T-24; assay: Induction of cell cycle arrest in human T24 cells assessed as accumulation of cells at G1 phase at 1 uM incubated for 24 hrs by propidium iodide/RNase A staining based flow cytometry analysis (reference value: 51.71 %); type: functional
[15] = test system: T-24; assay: Induction of DNA damage in human T24 cells assessed as increase in gamma H2AX expression at 0.5 to 1 uM incubated for 24 hrs by Western blot analysis; type: functional, cell-based; settings: dose 0.5-1 µM
[16] = test system: T-24; assay: Induction of apoptosis in human T24 cells assessed as late apoptotic cells at 0.5 uM incubated for 24 hrs by Annexin-V/PI staining based flow cytometry analysis (reference value: 0.543 %); type: functional
[17] = test system: T-24; assay: Induction of apoptosis in human T24 cells assessed as viable cells at 0.5 uM incubated for 24 hrs by Annexin-V/PI staining based flow cytometry analysis (reference value: 94.3 %); type: functional; settings: read-out: Activity
[18] = test system: T-24; assay: Induction of ROS generation in human T24 cells at 0.5 uM by fluorescence microscopy; type: functional, cell-based
[19] = test system: T-24; assay: Induction of mitochondrial membrane potential dysfunction in human T24 cells assessed as disappearance of cristae at 0.5 uM incubated for 24 hrs by TEM analysis; type: functional, cell-based
[20] = test system: T-24; assay: Induction of mitochondrial mediated apoptosis in human T24 cells assessed as upregulation of apaf-1 expression at 0.5 to 1 uM incubated for 24 hrs by Western blotting analysis; type: functional, cell-based; settings: dose 0.5-1 µM
[21] = test system: T-24; assay: Induction of Ca2+ production in human T24 cells assessed as increase in intracellular Ca2+ concentration at 2 uM by Fluo3-AM staining based fluorescence microscopic method; type: functional, cell-based
[22] = test system: T-24; assay: Induction of mitochondrial mediated apoptosis in human T24 cells assessed as upregulation of apaf-1 expression at 2 to 4 uM incubated for 24 hrs by Western blotting analysis; type: functional, cell-based; settings: dose 2-4 µM
[23] = test system: T-24; assay: Induction of cell cycle arrest in human T24 cells assessed as accumulation of cells at G2/M phase at 2 uM incubated for 24 hrs by propidium iodide/RNase A staining based flow cytometry analysis (reference value: 5.82 %); type: functional
[24] = test system: T-24; assay: Inhibition of colony formation in human T24 cells at 0.08 uM incubated for 24 hrs and measured for 10 days; type: functional, cell-based
[25] = test system: T-24; assay: Induction of cell cycle arrest in human T24 cells assessed as upregulation of CDK2 expression at 2 to 4 uM incubated for 24 hrs by chemiluminescence based Western blotting analysis; type: functional; settings: dose 2-4 µM
[26] = test system: T-24; assay: Induction of ROS accumulation in human T24 cells assessed as increase in intracellular ROS level at 2 uM by […] based flow cytometry; type: functional, cell-based
[27] = test system: T-24; assay: Induction of DNA damage in human T24 cells assessed as DNA strand breakage by measuring comet formation at 2 uM incubated for 24 hrs by comet assay; type: functional, cell-based

Compound: O=C1c2ccccc2-c2cccc3ccnc1c23
- Activity [1]: 21.7%
- Activity [2]: 4.89%
- Activity [3]: Active
- Activity [4]: 31.02%
- viability at 10 µM [5]: 79.1%
- Activity [6]: 2.31%
- Activity [7]: 2.44%
- Activity [8]: 36.6%

Compound: O=C1c2ccccc2-c2ccc([N+](=O)[O-])c3ccnc1c23
- Activity [9]: Active
- Activity [10]: Active
- Activity [11]: 61.26%
- Activity [12]: 30.6%
- Ratio IC50 [13]: 19
- Activity [14]: 3.53%
- Activity [15]: Active
- Activity [16]: 5.1%
- viability at 0.5 µM [17]: 58.1%
- Activity [18]: Active
- Activity [19]: Active
- Activity [20]: Active

Compound: O=C1c2cc([N+](=O)[O-])ccc2-c2ccc([N+](=O)[O-])c3ccnc1c23
- Activity [21]: Active
- Activity [22]: Active
- Activity [23]: 33.02%
- inhibition [24]: Active
- Activity [25]: Active
- Activity [26]: Active
- Activity [27]: Active
